Test results reported in PubChem BioAssay AID618 (Sanford-Burnham Center for Chemical Genomics, 2007).
pEC50: −log10 of the molar value.

System: MT1-MMP promoter luciferase reporter cells, luminescence
Assay: MT1-MMP gene expression reporter suppression – cell-based, luciferase reporter, luminescence (AID 618);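 also: actives suppress MT1-MMP promoter-driven transcription so potencies describe inhibitors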

| SMILES | pEC50 |
| --- | --- |
| Cc1ccc(-c2nc3n(n2)Cc2ccccc2-3)cc1 | 5.83 |
| O=C(Nc1nc2c(s1)CCCC2)C1COc2ccccc2O1 (centres undefined) | 5.62 |
| O=C1c2ccccc2S(=O)(=O)N1Cc1nc2ccccc2s1 | 5.51 |
| O=c1/c(=C/c2ccccn2)sc2nc3ccccc3n12 | 5.00 |
| O=C(Nc1ccc(N2CCCC2)c(Cl)c1)c1ccco1 | 5.57 |
| Cn1ccnc1SCc1cn2cc(Br)ccc2n1 | 4.82 |

More lines, in order of rising pEC50, values ahead:

| pEC50 | SMILES |
| --- | --- |
| 4.61 | O=S1(=O)Nc2c(ccc3cccnc23)-c2ccccc21 |
| 5.24 | Cc1ccc(SCc2cn3c(C)csc3n2)cc1 |
| 5.46 | Nc1ccc(C(=O)Nc2nc3ccccc3s2)cc1 |
